{"source": "patent US5739127A", "about": "“2,4'-bridged bis-2,4-diaminoquinazolines” (Bayer Aktiengesellschaft, priority 1996, dated 1998)", "molecular_target": "apamine binding sites (apamine-sensitive potassium channels), bovine cerebral membrane", "experiment": "Binding of 125I-apamine to bovine cerebral membrane", "conditions": "30 pM 125I-apamine, bovine (calf) hippocampus membranes, 200 μg membrane protein, 60 min on ice", "experimental": "The compounds according to the invention are ligands for apamine-sensitive potassium channels. This can be shown by studying the affinity for apamine binding sites, e.g. in bovine cerebral membranes.\n1) Binding of^125 I-apamine to bovine cerebral membrane\nCalf brains were obtained from the local abattoir. The hippocampus was prepared on ice and a membrane suspension was made up by homogenization twice in buffer (100 mM Tris-HCl, KCl 5 mM, pH 7.4) and centrifugation at 43,000×g. In a total volume of 500 μl, the incubation mixture contained 200 μg of membrane protein, 30 pM ^125 I-apamine and test substances in the concentration range 1×10^-9 to 1×10^-4 M. The non-specific binding of ^125 I-apamine was determined in the presence of 1×10^-7 M unlabelled apamine.\nAfter preincubation for 30 rain at room temperature (test substances and membrane homogenate), the samples were placed on ice for 10 min before the radioligand was added. The main incubation time was 60 min on ice. When the reaction time had elapsed, an excess of ice-cooled incubation buffer was added to each sample and the mixture was filtered with suction through cellulose acetate/nitrate membrane filters. The amount of bound ^125 I-apamine was measured with a gamma counter."}
{"smiles": "NC(=O)C1CCCN(c2nc(N3CCC(CNc4nc(N5CCCC5)nc5ccccc45)CC3)nc3ccccc23)C1", "note": "(stereo not shown) [Example 5]", "values": [{"measurement": "Ki", "value": 150, "unit": "nM"}]}
